Results on 19 compounds are retold here after PubChem BioAssay (NCI).

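Following 48 hours of exposure in 96-well plates, responses at five concentrations were used to interpolate endpoints linearly. At the GI50, growth is halved. Definition used: TGI = concentration required for complete inhibition of growth.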

Assay in all cases: NCI tumour cell line growth inhibition, 48 h
The test system of experiment [1] is COLO 205 colon.
Experiment [2] relates to SK-MEL-5 melanoma.
In experiment [3] the test system is SNB-19 CNS.
Experiment [4] has as its system SK-MEL-2 melanoma.
Experiment [5] concerns HT29 colon.
Experiment [6] concerns SF-295 CNS.
Experiment [7] has as its system K-562 leukemia.
Experiment [8] deals with UACC-257 melanoma.
In experiment [9] the test system is ACHN renal.
Experiment [10] relates to SW-620 colon.
Experiment [11] has as its system HCT-15 colon.
Experiment [12] deals with SF-268 CNS.
In experiment [13] the test system is CAKI-1 renal.
The test system of experiment [14] is MOLT-4 leukemia.
Experiment [15] has as its system UO-31 renal.
Experiment [16] has as its system UACC-62 melanoma.

Consider `COc1cccc(/C=C2\C(=O)N(C(=O)Cc3ccccc3)N=C2C)c1`, for which the TGI in [1], in experiment [2], in [3], in experiment [4], in experiment [5] and in [6] was > 100 µM throughout. Also, the TGI in experiment [7], in experiment [8], in experiment [9], in experiment [10], in experiment [11] and in experiment [12] was > 100 µM each time. In addition, the TGI in experiment [13], in [14] and in experiment [15] was > 100 µM in each case.
For `C/C(CN1C(=O)c2ccccc2C1=O)=N\NS(=O)(=O)c1ccc(F)cc1`, the TGI in experiment [1], in experiment [2], in [16], in [3], in [4] and in experiment [5] was > 100 µM throughout. Moreover, the TGI in [6], in experiment [7], in experiment [8], in experiment [9], in experiment [10] and in experiment [11] was > 100 µM throughout. Besides, the TGI in [12], in experiment [13], in [14] and in experiment [15] was > 100 µM each time.
As to `CCOC(=O)c1cn2c([nH]c3ccccc32)c(C#N)c1=O`, the TGI in experiment [1], in experiment [2], in experiment [16], in experiment [3], in [4] and in [5] was > 100 µM in each case. The TGI in [6] is > 100 µM; in experiment [7], > 100 µM; in [8], > 100 µM; in [9] it was > 100 µM; in experiment [10], 39.5 µM; in experiment [11], > 100 µM. In addition, the TGI in experiment [12], in experiment [13], in [14] and in experiment [15] was > 100 µM each time.
Regarding `COC1=CC(=O)c2ccccc2C1(C)C1=NC(C)(C)CO1` (stereo not given), the TGI in experiment [1], in experiment [2], in experiment [16], in experiment [3], in [4] and in experiment [5] was > 100 µM in each case. For the same compound, the TGI in [6], in [7], in experiment [8], in experiment [9], in experiment [10] and in experiment [11] was > 100 µM each time. For the same compound, the TGI in experiment [12], in experiment [13], in experiment [14] and in experiment [15] was > 100 µM throughout.
Regarding `COC(=O)c1cc(C)n(NC(=O)OC(C)(C)C)c1C`, the TGI in experiment [1], in [2], in experiment [16], in experiment [3], in [4] and in experiment [5] was > 100 µM throughout. Also, the TGI in experiment [6], in experiment [7], in experiment [8], in experiment [9], in experiment [10] and in experiment [11] was > 100 µM throughout. Moreover, the TGI in experiment [12], in experiment [13], in experiment [14] and in [15] was > 100 µM in each case.
With `COc1ccc(C2S/C(=C\c3cccc(O)c3)C(=O)N2NC(=O)Cc2ccccc2)cc1` (stereo not given), the TGI in experiment [1], in experiment [2], in [16], in experiment [4], in experiment [5] and in experiment [6] was > 100 µM each time. Besides, the TGI in [7], in [8], in experiment [9], in experiment [10], in experiment [11] and in experiment [12] was > 100 µM in each case. For the same compound, the TGI in [13], in [14] and in [15] was > 100 µM in each case.
With `COc1cc(C2C(Cl)C(=O)N2NC(=O)Cc2ccccc2)ccc1O` (stereo not given), the TGI in experiment [1], in experiment [2], in experiment [16], in experiment [3], in experiment [4] and in [5] was > 100 µM each time. Moreover, the TGI in [6], in experiment [7], in [8], in experiment [9], in experiment [10] and in experiment [11] was > 100 µM throughout. Also, the TGI in [12], in experiment [13], in experiment [14] and in experiment [15] was > 100 µM throughout.
As for `O=S(Cc1cc2c(cc1Br)OCO2)c1ccccc1` (stereo not given), the TGI in experiment [1], in experiment [2], in experiment [16], in [3], in experiment [4] and in [5] was > 100 µM in each case. In addition, the TGI in experiment [6] was > 100 µM; in experiment [7], > 100 µM; in experiment [8] it was > 100 µM; in [9] it was > 100 µM; in experiment [10], 29.7 µM; in [11] it was > 100 µM. Besides, the TGI in [12], in [13], in [14] and in [15] was > 100 µM throughout.
`CC1=NN(c2ccccc2)C(=O)C1=C1SCCCS1`: the TGI is 29.3 µM in experiment [1]; > 100 µM in [2]; 39.7 µM in [16]; 84.7 µM in experiment [3]; > 100 µM in [4]; > 100 µM in [5]. Also, the TGI in [6] was 73.7 µM; in experiment [7] it was 47.6 µM; in experiment [8] it was 94.1 µM; in experiment [9], > 100 µM; in [10], 26.6 µM; in [11], > 100 µM. Also, the TGI in [12] was > 100 µM; in [13] it was 52.1 µM; in [14], 36.1 µM; in [15] it was > 100 µM.
With `NC1=NS(=O)(=O)Nc2nc(-c3cccs3)[nH]c21`, the TGI in experiment [1], in [2], in experiment [16], in [3], in experiment [4] and in experiment [5] was > 100 µM throughout. For the same compound, the TGI in [6], in experiment [7], in experiment [9], in [10], in [11] and in [12] was > 100 µM each time. Further, the TGI in experiment [13], in experiment [14] and in experiment [15] was > 100 µM throughout.
With `O=C(O)Cc1ccc2c(c1O)C(=O)c1c(ccc(CC(=O)O)c1O)C2=O`, the TGI in experiment [1], in experiment [2], in [3], in [4], in [5] and in experiment [6] was > 100 µM throughout. Besides, the TGI in experiment [7], in experiment [8], in experiment [9], in [10], in experiment [11] and in experiment [12] was > 100 µM in each case. Further, the TGI in [13] and in experiment [14] was > 100 µM each time.
For `CCCOCN1COCN=C1NC#N`, the TGI was 32.6 µM in experiment [1]; > 100 µM in experiment [2]; > 100 µM in experiment [16]; > 100 µM in experiment [3]; > 100 µM in experiment [4]; > 100 µM in experiment [5]. Besides, the TGI in experiment [6] is > 100 µM; in experiment [7], > 100 µM; in experiment [8], > 100 µM; in experiment [9], > 100 µM; in experiment [10], 32.3 µM; in [11], 32.6 µM. In addition, the TGI in experiment [12], in experiment [13], in experiment [14] and in [15] was > 100 µM throughout.
For `COc1ccc(/C(Cl)=C/c2ccc(Cl)c(Cl)c2)cc1`, the TGI in experiment [1] was 54 µM; in [2], 50.3 µM; in experiment [16], > 100 µM; in experiment [3] it was > 100 µM; in [5], 47.5 µM; in experiment [6] it was 74.9 µM. For the same compound, the TGI in experiment [7] is > 100 µM; in experiment [8] it was 66.2 µM; in [9] it was 91.6 µM; in experiment [10], > 100 µM; in experiment [11], 97.3 µM; in [12] it was > 100 µM. The TGI in [14] is 37 µM; in [15], > 100 µM.
With `O=C(Nc1cc(Cl)c(Cl)cc1Cl)C(=O)C(C(=O)c1ccc2ccccc2c1)C1OC(=O)c2ccccc21` (stereo not given), the TGI in experiment [1] amounted to 69.2 µM; in experiment [2] it was 24.4 µM; in experiment [16] it was 26.9 µM; in experiment [3], 33.2 µM; in [4], 33.8 µM; in experiment [5] it was 37.3 µM. For the same compound, the TGI in experiment [6] came to 21 µM; in experiment [8], 28.7 µM; in [9], 39.9 µM; in experiment [10], 25.6 µM; in experiment [11] it was 45.2 µM; in experiment [15], 33.5 µM.
Consider `CCCCCC(=O)Cc1cc(OC)cc2c1C(=O)Oc1cc(O)c(C(=O)O)c(CC(=O)CCCCC)c1O2`, for which the TGI in [1] is > 100 µM; in experiment [2], > 100 µM; in experiment [16], 49.6 µM; in experiment [5], > 100 µM; in experiment [6] it was > 100 µM; in experiment [7], > 100 µM. Also, the TGI in experiment [8], in [9], in experiment [10], in experiment [12], in experiment [13] and in experiment [14] was > 100 µM each time.
Turning to `Cn1c(N)c(-c2c3ccccc3nc3ccccc23)c(=O)n(C)c1=O`, the TGI in experiment [1], in [2], in [16], in [4], in [5] and in experiment [6] was > 100 µM throughout. Moreover, the TGI in [7], in [10], in experiment [11], in experiment [12], in [13] and in experiment [14] was > 100 µM in each case.
As for `CO[C@H](c1ccccc1)[C@H](C)N(C)c1ccc2ccccc2c1C1=NC(C)(C)CO1`, the TGI in experiment [1] was 40.9 µM; in experiment [2], > 100 µM; in [16] it was > 100 µM; in experiment [3] it was 84.7 µM; in experiment [4], 29.7 µM; in [5], 25.1 µM. Further, the TGI amounted to 30.8 µM in experiment [6]; 88.5 µM in [7]; 30.6 µM in experiment [8]; 36.4 µM in experiment [9]; 33.4 µM in experiment [10]; 29.7 µM in experiment [11]. Moreover, the TGI stood at 36.1 µM in experiment [12], 39.3 µM in [14] and 27.9 µM in [15].
In the case of `C[N+](C)(Cc1ccc(NC(=O)CCCC(=O)ON2C(=O)CCC2=O)cc1)c1ccccc1`, the TGI in experiment [16] is < 0.01 µM; in experiment [3], > 100 µM; in experiment [4], > 100 µM; in experiment [5], > 100 µM; in experiment [6], > 100 µM; in experiment [7], > 100 µM. The TGI in experiment [8] is < 0.01 µM; in experiment [9], > 100 µM; in [10], > 100 µM; in experiment [11] it was > 100 µM; in experiment [12] it was 3.93 µM; in experiment [13] it was > 100 µM. Moreover, the TGI in experiment [14] turned out to be 1.8 µM. Moreover, in experiment [11], the GI50 is > 100 µM.
Regarding `COCC12CC(CC1=O)C1C2ON2c3ccccc3C(=O)C12c1ccccc1` (stereo not given), the TGI in experiment [1], in experiment [2], in experiment [16], in experiment [3], in experiment [5] and in experiment [6] was > 100 µM in each case. Moreover, the TGI in experiment [7], in [8], in [9], in [10], in experiment [11] and in experiment [12] was > 100 µM in each case. For the same compound, the TGI in experiment [14] and in experiment [15] was > 100 µM each time.
